Assay results reported in publication PMC7497253, “Structure‐Based Macrocyclization of Substrate Analogue NS2B‐NS3 Protease Inhibitors of Zika, West Nile and Dengue viruses” (Chemmedchem, 2020).
Like-named read-outs stand apart in the source and are kept apart here.

Legend:
Type in all cases: biochemical
[1] = target: T1, bZiPro (unlinked binary Zika virus NS2B-NS3 protease) (Zika virus, UniProt A0A024B7W1); assay: Enzyme kinetics with bZiPro, fluorogenic substrate Phac-Leu-Lys-Lys-Arg-AMC; details: for Ki: mean±SD of at least three independent measurements, substrate 10 μM in assay, room temperature, pH 8.5
T1 construct: The viral protease consists of the N‐terminal third of the nonstructural protein NS3; the NS2B construct ends at Glu96; His6 (cleaved yes); made in house
Protocol: (§1) Enzyme kinetics. Measurements with bZiPro15 and the covalent WNV NS2B‐NS3 construct^10 were performed at room temperature in black 96 well plates using a Fluoroskan Ascent® plate reader (Thermo Fisher Scientific, Vantaa, Finland) with λ ex at 355 nm and λ em at 460 nm. Each well contained 125 μL inhibitor dissolved in buffer (for bZiPro: 20 mM Tris×HCl pH 8.5, 2 mM DTT, 10 w/v glycerol and 0.01 w/v Triton X‐100;18 for WNV protease: 100 mM Tris×HCl pH 8.5, containing 32 w/v glycerol and 0.01 w/v Triton X‐10012) and 50 μL substrate Phac‐Leu‐Lys‐Lys‐Arg‐AMC12 (40 μM for bZiPro (10 μM in assay, K M=1.4 μM) and 400 μM for the WNV protease (100 μM in assay, K M=53 μM)). The measurements were started by addition of 25 μL enzyme solution (16 nM for bZiPro (2.0 nM in assay), and 64 nM for the WNV protease (8.0 nM in assay)). Data points were collected each 15 s over a period of 10 min using eight different inhibitor concentrations. […] The K i values and their standard deviation were obtained from at least three independent measurements.(1) vi=Vmax×[S]/KM1+[I]/Ki+[S]
The constants K M and V max were obtained from independent measurements with six different substrate concentrations in absence of inhibitor. For inhibitor 10 with bZiPro, additional measurements at three substrate concentrations (10, 5, and 2.5 μM in assay) were performed to obtain the Dixon plot shown in Figure 4.

[2] = target: T2, bD4Pro (unlinked binary dengue-4 virus NS2B-NS3 protease) (Dengue virus type 4, UniProt Q2YHF2); assay: Enzyme kinetics with bD4Pro, substrate Benzoyl-Nle-Lys-Arg-Arg-AMC
T2 construct: The viral protease consists of the N‐terminal third of the nonstructural protein NS3; NS3 has to form a complex with its cofactor NS2B to achieve proteolytic activity; His6 (cleaved yes); made in house
T2 sequence (Q2YHF2 1475-1652 limits assumed): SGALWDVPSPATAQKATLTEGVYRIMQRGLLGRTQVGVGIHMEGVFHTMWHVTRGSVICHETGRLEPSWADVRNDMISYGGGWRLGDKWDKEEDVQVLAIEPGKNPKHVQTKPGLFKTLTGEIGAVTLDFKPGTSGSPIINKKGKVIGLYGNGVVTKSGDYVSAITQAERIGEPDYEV
T2 sequence (Q2YHF2 1397-1436 limits assumed): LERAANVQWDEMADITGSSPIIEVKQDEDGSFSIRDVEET
Protocol: Measurements with the dengue 4 virus protease construct (bD4Pro; expressed and purified by a similar methodology as described for bZiPro15 with slight modification of using Tobacco Etch Virus (TEV) protease instead of thrombin for His6‐tag cleavage) were performed in a Cytation 3 Mulitmode plate reader with λ ex at 380 nm and λ em at 460 nm. Assays were carried out as triplicate at 37 °C. Before measurement, the protease (final assay concentration 3 nM) was preincubated with varying concentrations of inhibitors in assay buffer (20 mM Tris pH 8.5, 10 % glycerol, 0.01 % Triton X‐100) for 1 h at room temperature in Corning black clear bottom 96‐well plates. The reaction was started by addition of the substrate Benzoyl‐Nle‐Lys‐Arg‐Arg‐AMC (final assay concentration 50 μM, K M=48.4 μM). Fluorescent readings were recorded at 1‐minute intervals over 10 minutes. The steady‐state rates v i in presence of inhibitor were calculated from the slopes of the progress curves using Graph Pad Prism. The v i values were fitted to Equation (2) as function of the inhibitor concentration [I] providing the IC50 values, where v 0 is the rate in absence of inhibitor and s a slope factor. The obtained IC50 values were finally converted into K i values by the Cheng‐Prusoff Equation (2).(2) vi=v0/1+I/IC50^s (3) Ki=IC50/1+S/KM

furin = furin (Homo sapiens, UniProt P09958); assay: Enzyme kinetic assay with furin (selectivity); details: at concentrations of 75 μM
Text: (§2) Some of the latter group, like the peptidic arginal8 or boroarginine derivatives,10 form a reversible covalent bond with their target. […] With respect to virus replication, mutations in allosteric binding pockets are better tolerated than changes in the active site, which often lead to a more severe influence on the fitness of the virus.31, 32 This advantage justifies further efforts for the improvement of active site inhibitors. One strategy to reduce the conformational freedom of peptide derivatives and predisposing them to a favorable orientation for binding is their macrocyclization, leading to improved potency, selectivity and stability.33 By this approach, we have prepared numerous noncovalent inhibitors with excellent selectivity for the tested flavivirins, when compared with trypsin‐like serine proteases or basic proprotein convertases. […] The deep S1 pocket of trypsin34 and furin35 cannot tolerate a branching close to the basic P1 guanidine anchor, which is well accepted by the flavivirins due to their flat and open S1 site. In contrast to some of our previously described linear C‐terminal elongated derivatives,18, 36 the cyclic derivatives are fully stable when incubated with bZiPro, as analyzed by mass spectrometry (Figure S3). […]

[3] = target: T3, WNV NS2B-NS3 protease (WNV-Pro) (West Nile virus, UniProt P06935); assay: Enzyme kinetics with the covalent WNV NS2B-NS3 construct, substrate Phac-Leu-Lys-Lys-Arg-AMC
T3 construct: NS3 has to form a complex with its cofactor NS2B to achieve proteolytic activity; The viral protease consists of the N‐terminal third of the nonstructural protein NS3
Protocol: as §1

trypsin = target: T4, trypsin (Bos taurus, UniProt P00760); assay: Enzyme kinetic assay with trypsin (selectivity); details: at concentrations of 75 μM
T4 construct: gene PRSS1
T4 sequence (P00760 24-246): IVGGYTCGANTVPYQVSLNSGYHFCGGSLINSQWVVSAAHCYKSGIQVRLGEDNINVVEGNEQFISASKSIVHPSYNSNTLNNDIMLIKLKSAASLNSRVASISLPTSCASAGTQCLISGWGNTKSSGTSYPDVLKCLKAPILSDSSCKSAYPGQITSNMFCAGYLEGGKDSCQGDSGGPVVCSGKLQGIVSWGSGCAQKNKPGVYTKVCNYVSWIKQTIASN
Text: as §2

T3 sequence (P06935 1424-1463): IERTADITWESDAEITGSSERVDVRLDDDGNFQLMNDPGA
T3 sequence (P06935 1502-1679): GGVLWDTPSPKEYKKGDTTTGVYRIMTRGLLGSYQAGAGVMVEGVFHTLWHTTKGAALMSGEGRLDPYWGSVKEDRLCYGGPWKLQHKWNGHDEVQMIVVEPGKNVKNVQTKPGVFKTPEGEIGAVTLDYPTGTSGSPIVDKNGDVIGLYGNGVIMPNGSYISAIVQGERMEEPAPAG
T1 sequence (A0A024B7W1 1503-1680 limits assumed): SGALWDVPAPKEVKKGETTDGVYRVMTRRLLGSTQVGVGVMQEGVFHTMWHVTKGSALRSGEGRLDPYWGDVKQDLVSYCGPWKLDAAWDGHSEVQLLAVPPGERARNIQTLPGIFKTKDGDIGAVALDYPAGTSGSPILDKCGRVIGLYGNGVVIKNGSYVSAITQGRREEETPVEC
T1 sequence (A0A024B7W1 1425-1464 limits assumed): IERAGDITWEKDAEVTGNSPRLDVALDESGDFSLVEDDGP
Sequence of furin (P09958 108-794): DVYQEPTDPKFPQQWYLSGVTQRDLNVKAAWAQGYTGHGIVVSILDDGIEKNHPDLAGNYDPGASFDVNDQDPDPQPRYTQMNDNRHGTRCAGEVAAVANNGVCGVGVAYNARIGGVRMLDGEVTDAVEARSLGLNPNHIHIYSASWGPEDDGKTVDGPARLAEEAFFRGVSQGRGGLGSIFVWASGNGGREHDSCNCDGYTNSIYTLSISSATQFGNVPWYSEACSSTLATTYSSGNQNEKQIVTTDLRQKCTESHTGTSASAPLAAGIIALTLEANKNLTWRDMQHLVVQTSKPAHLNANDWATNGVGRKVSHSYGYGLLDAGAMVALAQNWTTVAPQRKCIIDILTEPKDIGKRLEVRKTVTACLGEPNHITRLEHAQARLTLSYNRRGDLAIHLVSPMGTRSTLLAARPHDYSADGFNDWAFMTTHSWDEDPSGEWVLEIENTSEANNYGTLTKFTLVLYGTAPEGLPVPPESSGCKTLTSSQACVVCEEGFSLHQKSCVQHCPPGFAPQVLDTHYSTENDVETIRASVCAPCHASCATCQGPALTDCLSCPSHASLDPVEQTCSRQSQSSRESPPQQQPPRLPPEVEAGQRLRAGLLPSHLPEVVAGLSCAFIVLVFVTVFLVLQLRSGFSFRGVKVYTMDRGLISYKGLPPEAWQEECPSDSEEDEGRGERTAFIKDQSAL

Structure (SMILES)	Ki ([1]; K i bZiPro)	Ki [2]	inhibition of furin (furin)	Ki [3]	inhibition of trypsin (trypsin)	binding mode from Dixon plot of bZiPro inhibition ([1]; substrate 10, 5 and 2.5 μM, bZiPro 1.96 nM in assay)	Ki ([1]; read-out: K i bZiPro)	Ki ([2]; mean±SD of at least three independent measurements, 37 °C, IC50 converted into K i by Cheng-Prusoff, read-out: K i bD4Pro)	Ki ([3]; mean±SD of at least three independent measurements, substrate 100 μM in assay, room temperature, pH 8.5, read-out: K i WNV-Pro)
N=C(N)N[C@@H]1CCCCNC(=O)[C@H](CCCCN)NC(=O)[C@H](CCCCN)NC(=O)Cc2cccc(c2)NC(=O)CNC1=O [Inhibitor 11]	1.42 ± 0.27 µM	60.6 ± 5.3 µM	could not detect any inhibition	47.6 ± 2.5 µM	could not detect any inhibition	–	–	–	–
N=C(N)N[C@@H]1CCCCNC(=O)[C@H](CCCCN)NC(=O)[C@H](CCCCN)NC(=O)Cc2cccc(c2)CNC(=O)CNC1=O [Inhibitor 10, 1‐((8R,15S,18S)‐15,18‐bis(4‐aminobutyl)‐4,7,14,17,20‐pentaoxo‐3,6,13,16,19‐pentaaza‐1(1,3)‐benzenacyclohenicosaphane‐8‐yl)guanidine]	0.00157 ± 0.00032 µM	0.142 ± 0.01 µM	could not detect any inhibition	0.138 ± 0.031 µM	could not detect any inhibition	competitive reversible	–	–	–
NCCCC[C@@H]1NC(=O)Cc2ccc(cc2)CNC(=O)CCCNC(=O)[C@H](N)CCCNC(=O)[C@H](CCCCN)NC1=O [Inhibitor 7]	–	–	–	–	–	–	13.2 ± 1.7 µM	30.6 ± 3.9 µM	31.7 ± 3.6 µM
